Experimental findings from ChEMBL document CHEMBL4673380, “Novel Pyrimidinones as SHP2 Antagonists for Treating Cancer” (ACS Med Chem Lett, 2021) are described below.

Assay [1] addresses T1, Tyrosine-protein phosphatase non-receptor type 11 (Homo sapiens, UniProt Q06124).
T1 sequence (Q06124 whole entry): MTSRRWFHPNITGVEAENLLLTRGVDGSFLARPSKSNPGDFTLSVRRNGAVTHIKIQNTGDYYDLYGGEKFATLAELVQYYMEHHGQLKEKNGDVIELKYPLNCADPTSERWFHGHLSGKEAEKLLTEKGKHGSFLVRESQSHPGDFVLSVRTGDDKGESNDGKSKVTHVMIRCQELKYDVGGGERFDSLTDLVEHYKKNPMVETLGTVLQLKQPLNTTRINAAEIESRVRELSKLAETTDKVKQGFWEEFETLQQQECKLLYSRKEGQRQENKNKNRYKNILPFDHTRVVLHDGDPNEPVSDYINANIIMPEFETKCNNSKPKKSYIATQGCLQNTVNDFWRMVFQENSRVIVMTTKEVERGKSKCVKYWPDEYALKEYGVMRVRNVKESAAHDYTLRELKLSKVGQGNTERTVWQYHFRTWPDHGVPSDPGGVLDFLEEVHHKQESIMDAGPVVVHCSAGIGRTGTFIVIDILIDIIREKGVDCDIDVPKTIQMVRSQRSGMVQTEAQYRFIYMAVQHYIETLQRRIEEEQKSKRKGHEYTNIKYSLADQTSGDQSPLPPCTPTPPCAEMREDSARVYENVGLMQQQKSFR
In words: Antagonist activity at SHP2 in human KYSE520 cells assessed as inhibition of ERK1/2 phosphorylation incubated for 2 hrs. In kind it is cell-based.

Assay [2] has as its target T1, Tyrosine-protein phosphatase non-receptor type 11. In words: Antagonist activity at recombinant human N-terminal His6-tagged full length SHP2 expressed in Escherichia coli using DiFMUP as substrate measured after 60 mins in presence of IRS1-2pY peptide by fluorescence assay.

For orientation: IC50 means the point on the concentration scale where inhibition reaches its midpoint. Take `Cc1c(N2CCC3(CC2)Cc2ccccc2[C@H]3N)nc(C)n(-c2ccc(F)c(Cl)c2Cl)c1=O`: the IC50 in assay [1] is 4 nM.
Regarding `Cc1c(N2CCC3(CC2)Cc2ncccc2[C@@H]3N)nc(C)n(-c2cccc(Cl)c2Cl)c1=O`, the IC50 in assay [1] was 5 nM; in assay [2], 1 nM.
Take `Cc1c(N2CCC3(CC2)Oc2ccccc2[C@H]3N)nc(C)n(-c2cccc(Cl)c2Cl)c1=O`: the IC50 in assay [1] worked out at 6.6 nM.
On to `Cc1nc(N2CCC3(CC2)Cc2ccccc2[C@H]3N)cc(=O)n1-c1cccc(Cl)c1Cl`, for which the IC50 in assay [1] is 5 nM.
The same measure, in the same setting: for `Cc1c(N2CCC3(CC2)Cc2ccccc2[C@H]3N)nc(C)n(-c2cccc(Cl)c2Cl)c1=O` the value was 2 nM; for `Cc1c(F)ccc(-n2c(C)nc(N3CCC4(CC3)Cc3ccccc3[C@H]4N)c(C)c2=O)c1Cl`, 7 nM.
